Experimental findings from patent US20080009418A1, “Selective Inhibitors” (Alchemia LTD., priority 2004, published 2008) are described below.

Each structure is given as a SMILES string.

One assay deals with T1, Human μ-opioid (MOP) (Homo sapiens, UniProt P35372).
T1 construct: purchased Perkin Elmer Biosignal
The assay can be described thus: Radioligand binding, human μ-opioid (MOP) membranes, FlashPlate, [3H]-Naloxone. To be noted: compound at 10 μM; for A7: inhibition of radioligand binding, human μ-opioid (MOP): [3H]-Naloxone. The method, boiled down:
(§1)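 Cloned human receptor membranes were coated onto FlashPlate wells and incubated with radioligand and compound (added from a 0.5 mM DMSO daughter plate) for 1 hour at room temperature in the dark. Scintillation counting gave percent inhibition, with DMSO defining total and reference ligand defining non-specific binding.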

The next assay deals with T2, Human κ-Opioid (KOP) (Homo sapiens, UniProt P41145).
T2 construct: purchased Perkin Elmer Biosignal
The assay can be described thus: Radioligand binding, human κ-opioid (KOP) membranes, filtration, [3H]-Diprenorphine. The note with it: compound at 10 μM; for A2: inhibition of radioligand binding, human κ-opioid (KOP): [3H]-Diprenorphine. In outline:
(§2)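 Filtration binding on cloned human receptor membranes (1 Unit/well), [125I]-Substance P for NK1 and [3H]-Diprenorphine for KOP, 1 h at room temperature. Filters PEI-presoaked, washed with cold 50 mM Tris-HCl pH 7.4, counted by scintillation; percent inhibition calculated, reference ligand defining non-specific binding.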

The target of assay [1] is T3, Human melanin-concentrating hormone (MCH1) (Homo sapiens, UniProt Q99705).
T3 construct: purchased Perkin Elmer Biosignal
The assay can be described thus: Radioligand binding, human melanin-concentrating hormone MCH1 membranes, FlashPlate, [125I]-S36057. The note with it: compound at 10 μM; for A6: inhibition of radioligand binding, human melanin-concentrating hormone (MCH1): [125I]-S36057. The method, boiled down: as §1

The next assay has as its target T4, Human Melanocortin (MC3) (Homo sapiens, UniProt P41968).
T4 construct: purchased Perkin Elmer Biosignal
The assay can be described thus: Radioligand binding, human melanocortin MC3 membranes, FlashPlate, [125I]-NDP-αMSH. The note with it: compound at 10 μM; for A3: inhibition of radioligand binding, human melanocortin (MC3): [125I]-NDP-αMSH. The method, boiled down: as §1

In a further assay the target is T5, Human neurokinin (NK1) (Homo sapiens, UniProt P25103).
T5 construct: purchased Perkin Elmer Biosignal
Put plainly: Radioligand binding, human neurokinin NK1 membranes, filtration, [125I]-Substance P. To be noted: compound at 10 μM; for A8: inhibition of radioligand binding, human neurokinin (NK1): [125I]-Substance P. In outline:
as §2

Another assay deals with T6, Human Melanocortin (MC4) (Homo sapiens, UniProt P32245).
T6 construct: purchased Perkin Elmer Biosignal
The assay can be described thus: Radioligand binding, human melanocortin MC4 membranes, FlashPlate, [125I]-NDP-αMSH. The note with it: compound at 10 μM; for A4: inhibition of radioligand binding, human melanocortin (MC4): [125I]-NDP-αMSH. The method, boiled down:
as §1

The next assay deals with T7, Human melanocortin (MC5) (Homo sapiens, UniProt P33032).
T7 construct: purchased Perkin Elmer Biosignal
The assay can be described thus: Radioligand binding, human melanocortin MC5 membranes, FlashPlate, [125I]-NDP-αMSH. The note with it: compound at 10 μM; for A5: inhibition of radioligand binding, human melanocortin (MC5): [125I]-NDP-αMSH. The method, boiled down: as §1

The next assay deals with T8, Human opioid (ORL1) (Homo sapiens, UniProt P41146).
T8 construct: purchased Perkin Elmer Biosignal
Put plainly: Radioligand binding, human opioid ORL1 membranes, FlashPlate, [125I]-Nociceptin. The note with it: compound at 10 μM; for A10: inhibition of radioligand binding, human opioid (ORL1): [125I]-Nociceptin. The method, boiled down:
as §1

Assay [2] concerns the target T9, Human neuropeptide Y (NPY-Y1) (Homo sapiens, UniProt P25929).
T9 construct: purchased Perkin Elmer Biosignal
T9 sequence (P25929 1-384): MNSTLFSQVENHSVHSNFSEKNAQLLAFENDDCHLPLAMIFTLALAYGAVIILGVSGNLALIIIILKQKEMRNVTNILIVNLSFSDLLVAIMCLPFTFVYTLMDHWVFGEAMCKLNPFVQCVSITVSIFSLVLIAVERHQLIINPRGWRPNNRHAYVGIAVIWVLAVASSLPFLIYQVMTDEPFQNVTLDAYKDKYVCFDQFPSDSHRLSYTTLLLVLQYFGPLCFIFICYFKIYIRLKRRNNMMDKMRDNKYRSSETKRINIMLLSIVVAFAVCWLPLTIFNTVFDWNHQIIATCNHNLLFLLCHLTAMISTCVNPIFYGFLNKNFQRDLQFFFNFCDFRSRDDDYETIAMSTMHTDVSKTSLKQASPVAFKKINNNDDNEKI
Put plainly: Radioligand binding, human neuropeptide Y NPY-Y1 membranes, FlashPlate, [125I]-PYY. To be noted: compound at 10 μM; for A9: inhibition of radioligand binding, human neuropeptide Y (NPY-Y1): [125I]-PYY. The method, boiled down: as §1

A further assay deals with T10, Mouse urotensin (mUR2) (Mus musculus, UniProt Q8VIH9).
T10 construct: purchased Perkin Elmer Biosignal
T10 sequence (Q8VIH9 1-385): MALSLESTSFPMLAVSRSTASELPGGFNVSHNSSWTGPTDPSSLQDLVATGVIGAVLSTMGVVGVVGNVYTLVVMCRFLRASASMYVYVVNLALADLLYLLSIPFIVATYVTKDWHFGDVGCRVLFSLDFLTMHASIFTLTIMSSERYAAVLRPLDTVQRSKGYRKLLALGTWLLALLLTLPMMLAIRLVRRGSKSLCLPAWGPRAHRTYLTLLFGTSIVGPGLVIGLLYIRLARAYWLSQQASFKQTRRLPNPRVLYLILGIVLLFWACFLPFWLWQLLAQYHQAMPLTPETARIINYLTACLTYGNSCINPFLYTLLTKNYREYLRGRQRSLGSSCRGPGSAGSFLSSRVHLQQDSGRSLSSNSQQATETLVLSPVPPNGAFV
The assay can be described thus: Radioligand binding, mouse urotensin mUR2 membranes, FlashPlate, [125I]-Urotensin II. The note with it: compound at 10 μM; for A11: inhibition of radioligand binding, mouse urotensin (mUR2): [125I]-Urotensin II. The method, boiled down: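 Cloned mouse urotensin (mUR2) receptor membranes from Perkin Elmer Biosignal were immobilized in FlashPlate microplates using a proprietary coating. Each well got 19.5 μl buffer, then 0.5 μl of DMSO, reference ligand, or compound. Adding 5 μl of [125I]-Urotensin II, diluted to 5× final concentration in binding buffer, started binding. Plates were sealed with TopSeal-A and incubated 1 hour at room temperature in the dark. Wells were counted for 30 seconds each on a TopCount after a 60-second delay, and percentage inhibition was calculated.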

In the next assay the target is T11, Human δ-opioid (DOP) (Homo sapiens, UniProt P41143).
T11 construct: purchased Perkin Elmer Biosignal
The assay can be described thus: Radioligand binding, human δ-opioid (DOP) membranes, FlashPlate, [3H]-Bremazocine. The note with it: compound at 10 μM; for A1: inhibition of radioligand binding, human δ-opioid (DOP): [3H]-Bremazocine. The method, boiled down:
as §1

T3 sequence (Q99705 whole entry): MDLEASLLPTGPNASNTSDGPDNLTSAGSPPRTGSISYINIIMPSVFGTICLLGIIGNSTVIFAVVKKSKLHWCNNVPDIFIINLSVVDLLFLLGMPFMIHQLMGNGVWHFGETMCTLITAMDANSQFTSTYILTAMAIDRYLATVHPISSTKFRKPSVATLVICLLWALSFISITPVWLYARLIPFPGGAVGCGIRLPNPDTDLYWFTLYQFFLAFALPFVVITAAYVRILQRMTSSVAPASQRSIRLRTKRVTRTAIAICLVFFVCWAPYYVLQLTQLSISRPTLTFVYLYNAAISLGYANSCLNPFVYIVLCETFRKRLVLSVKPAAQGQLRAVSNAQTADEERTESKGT
T5 sequence (P25103 whole entry): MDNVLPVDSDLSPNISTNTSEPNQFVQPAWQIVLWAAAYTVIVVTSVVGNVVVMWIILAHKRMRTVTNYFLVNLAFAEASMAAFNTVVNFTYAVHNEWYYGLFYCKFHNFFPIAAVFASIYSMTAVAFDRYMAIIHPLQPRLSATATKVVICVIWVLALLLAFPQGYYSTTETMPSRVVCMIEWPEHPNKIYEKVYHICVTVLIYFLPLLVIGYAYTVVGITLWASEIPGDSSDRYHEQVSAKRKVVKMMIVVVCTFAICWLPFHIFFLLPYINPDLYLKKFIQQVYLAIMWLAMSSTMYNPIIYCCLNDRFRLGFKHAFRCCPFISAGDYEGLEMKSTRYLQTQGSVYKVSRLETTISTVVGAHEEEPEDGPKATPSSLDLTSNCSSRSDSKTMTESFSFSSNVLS
T2 sequence (P41145 whole entry): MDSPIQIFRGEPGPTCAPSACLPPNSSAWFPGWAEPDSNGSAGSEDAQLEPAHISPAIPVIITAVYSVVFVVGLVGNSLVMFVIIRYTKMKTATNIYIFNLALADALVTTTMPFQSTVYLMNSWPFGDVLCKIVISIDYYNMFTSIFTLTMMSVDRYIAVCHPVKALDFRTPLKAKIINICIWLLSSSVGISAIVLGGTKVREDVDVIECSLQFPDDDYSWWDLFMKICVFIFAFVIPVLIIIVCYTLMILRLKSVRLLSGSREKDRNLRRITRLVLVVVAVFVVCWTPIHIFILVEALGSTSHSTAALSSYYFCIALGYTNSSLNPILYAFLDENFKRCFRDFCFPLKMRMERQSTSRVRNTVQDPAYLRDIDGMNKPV
T4 sequence (P41968 whole entry): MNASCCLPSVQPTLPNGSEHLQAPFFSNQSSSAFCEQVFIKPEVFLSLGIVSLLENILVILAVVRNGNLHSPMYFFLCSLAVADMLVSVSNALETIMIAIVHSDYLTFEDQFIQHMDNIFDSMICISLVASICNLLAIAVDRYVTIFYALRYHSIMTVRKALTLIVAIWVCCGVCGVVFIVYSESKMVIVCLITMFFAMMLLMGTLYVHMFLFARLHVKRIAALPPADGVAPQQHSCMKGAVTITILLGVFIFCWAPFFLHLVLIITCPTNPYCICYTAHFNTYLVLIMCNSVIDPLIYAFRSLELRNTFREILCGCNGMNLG
T8 sequence (P41146 whole entry): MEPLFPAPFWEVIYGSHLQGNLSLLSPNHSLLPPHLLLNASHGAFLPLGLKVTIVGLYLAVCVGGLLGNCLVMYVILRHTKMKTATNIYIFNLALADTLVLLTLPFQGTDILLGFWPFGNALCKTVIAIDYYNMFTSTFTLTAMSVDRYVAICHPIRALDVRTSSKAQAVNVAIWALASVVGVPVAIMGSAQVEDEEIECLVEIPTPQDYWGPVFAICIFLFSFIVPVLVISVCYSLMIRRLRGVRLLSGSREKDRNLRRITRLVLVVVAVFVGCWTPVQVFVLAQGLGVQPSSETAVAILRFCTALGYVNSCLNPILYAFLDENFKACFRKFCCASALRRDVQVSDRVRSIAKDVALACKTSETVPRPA
T6 sequence (P32245 whole entry): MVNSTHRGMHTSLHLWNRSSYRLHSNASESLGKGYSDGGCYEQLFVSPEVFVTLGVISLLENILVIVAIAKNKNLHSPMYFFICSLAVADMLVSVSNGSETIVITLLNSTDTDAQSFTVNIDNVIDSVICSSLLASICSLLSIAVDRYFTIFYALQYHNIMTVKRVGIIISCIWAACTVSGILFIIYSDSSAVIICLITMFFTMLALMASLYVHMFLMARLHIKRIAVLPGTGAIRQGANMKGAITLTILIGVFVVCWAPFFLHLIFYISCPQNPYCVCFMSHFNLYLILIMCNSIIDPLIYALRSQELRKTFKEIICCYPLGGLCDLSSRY
T11 sequence (P41143 whole entry): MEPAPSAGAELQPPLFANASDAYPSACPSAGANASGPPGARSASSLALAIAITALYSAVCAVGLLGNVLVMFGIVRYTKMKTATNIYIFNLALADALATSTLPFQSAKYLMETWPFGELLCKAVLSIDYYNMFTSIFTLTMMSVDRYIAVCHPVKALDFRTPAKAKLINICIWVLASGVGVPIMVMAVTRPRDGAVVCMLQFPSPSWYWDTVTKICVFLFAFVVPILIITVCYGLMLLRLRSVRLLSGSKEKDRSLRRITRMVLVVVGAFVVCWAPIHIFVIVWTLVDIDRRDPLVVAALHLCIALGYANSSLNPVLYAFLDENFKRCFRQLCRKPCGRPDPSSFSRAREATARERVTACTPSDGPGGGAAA
T1 sequence (P35372 whole entry): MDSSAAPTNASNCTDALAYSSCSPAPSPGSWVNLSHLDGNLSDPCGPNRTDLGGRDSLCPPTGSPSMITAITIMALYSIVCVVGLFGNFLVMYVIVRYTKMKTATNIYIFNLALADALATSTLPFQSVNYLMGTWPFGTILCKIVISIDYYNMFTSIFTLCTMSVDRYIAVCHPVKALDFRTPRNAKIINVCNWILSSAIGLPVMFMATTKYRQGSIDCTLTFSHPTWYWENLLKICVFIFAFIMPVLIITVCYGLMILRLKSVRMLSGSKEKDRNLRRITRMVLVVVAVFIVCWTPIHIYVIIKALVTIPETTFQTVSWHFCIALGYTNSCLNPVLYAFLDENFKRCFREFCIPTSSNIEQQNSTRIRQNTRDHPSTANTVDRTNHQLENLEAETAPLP
T7 sequence (P33032 whole entry): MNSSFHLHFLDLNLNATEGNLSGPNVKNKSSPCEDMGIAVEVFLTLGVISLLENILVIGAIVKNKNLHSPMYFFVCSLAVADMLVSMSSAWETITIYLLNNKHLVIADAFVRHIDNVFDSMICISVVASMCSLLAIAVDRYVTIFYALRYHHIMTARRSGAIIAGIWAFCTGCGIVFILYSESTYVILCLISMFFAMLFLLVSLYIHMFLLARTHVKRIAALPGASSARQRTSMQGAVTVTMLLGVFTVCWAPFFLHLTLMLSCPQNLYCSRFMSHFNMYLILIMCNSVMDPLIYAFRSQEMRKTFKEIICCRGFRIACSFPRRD

On to `COC[C@H]1OC(OCc2ccc3ccccc3c2)[C@H](NC(=O)CCNC(=N)N)[C@@H](OCc2ccccc2)[C@@H]1O` (stereo partly drawn) [compound 19], for which, on Human μ-opioid (MOP) (human μ-opioid (MOP) membranes), the “A7 radioligand binding inhibition” value was “+ (“+” indicates greater than 50% inhibition at 10 μM)”. In addition, on Human κ-Opioid (KOP) (human κ-opioid (KOP) membranes), the “A2 radioligand binding inhibition” value is “− (“−” indicates less than 50% inhibition at 10 μM)”. For the same molecule, the “A6 radioligand binding inhibition” value in assay [1] (human MCH1 membranes) was “− (“−” indicates less than 50% inhibition at 10 μM)”. For the same molecule, the “A3 radioligand binding inhibition” value at Human Melanocortin (MC3) (human melanocortin MC3 membranes) is given as “− (“−” indicates less than 50% inhibition at 10 μM)”. Moreover, the “A8 radioligand binding inhibition” value at Human neurokinin (NK1) (human neurokinin NK1 membranes) is on record as “+ (“+” indicates greater than 50% inhibition at 10 μM)”. The “A4 radioligand binding inhibition” value on Human Melanocortin (MC4) (human melanocortin MC4 membranes) is reported as “− (“−” indicates less than 50% inhibition at 10 μM)”. In addition, the “A5 radioligand binding inhibition” value on Human melanocortin (MC5) (human melanocortin MC5 membranes) is “− (“−” indicates less than 50% inhibition at 10 μM)”. In addition, on Human opioid (ORL1) (human ORL1 membranes), the “A10 radioligand binding inhibition” value is on record as “− (“−” indicates less than 50% inhibition at 10 μM)”. Also, the “A9 radioligand binding inhibition” value in [2] (human NPY-Y1 membranes) is reported as “− (“−” indicates less than 50% inhibition at 10 μM)”. Also, at Mouse urotensin (mUR2) (mouse urotensin mUR2 membranes), the “A11 radioligand binding inhibition” value is “− (“−” indicates less than 50% inhibition at 10 μM)”. Also, the “A1 radioligand binding inhibition” value on Human δ-opioid (DOP) (human δ-opioid (DOP) membranes) is recorded as “− (“−” indicates less than 50% inhibition at 10 μM)”.
Turning to `COCC1OC(NC(=O)Cc2ccccc2)C(NC(=O)CCCN)C(OCc2ccc3ccccc3c2)C1O` (stereo not drawn) [compound 543], the “A7: inhibition of radioligand binding, human μ-opioid (MOP)” value at Human μ-opioid (MOP) is listed as “− (“−” indicates less than 50% inhibition at 10 μM)”. Also, on Human κ-Opioid (KOP), the “A2: inhibition of radioligand binding, human κ-opioid (KOP)” value is listed as “− (“−” indicates less than 50% inhibition at 10 μM)”. In addition, the “A6: inhibition of radioligand binding, human melanin-concentrating hormone (MCH1)” value in [1] is reported as “− (“−” indicates less than 50% inhibition at 10 μM)”. In addition, the “A3: inhibition of radioligand binding, human melanocortin (MC3)” value at Human Melanocortin (MC3) was “− (“−” indicates less than 50% inhibition at 10 μM)”. Also, the “A8: inhibition of radioligand binding, human neurokinin (NK1)” value at Human neurokinin (NK1) is “+ (“+” indicates greater than 50% inhibition at 10 μM)”. Also, the “A4: inhibition of radioligand binding, human melanocortin (MC4)” value on Human Melanocortin (MC4) is “− (“−” indicates less than 50% inhibition at 10 μM)”. Moreover, the “A5: inhibition of radioligand binding, human melanocortin (MC5)” value on Human melanocortin (MC5) is given as “− (“−” indicates less than 50% inhibition at 10 μM)”. Also, the “A10: inhibition of radioligand binding, human opioid (ORL1)” value on Human opioid (ORL1) is given as “− (“−” indicates less than 50% inhibition at 10 μM)”. In assay [2], the “A9: inhibition of radioligand binding, human neuropeptide Y (NPY-Y1)” value is listed as “− (“−” indicates less than 50% inhibition at 10 μM)”. Also, the “A11: inhibition of radioligand binding, mouse urotensin (mUR2)” value on Mouse urotensin (mUR2) is “− (“−” indicates less than 50% inhibition at 10 μM)”. The “A1: inhibition of radioligand binding, human δ-opioid (DOP)” value at Human δ-opioid (DOP) is given as “− (“−” indicates less than 50% inhibition at 10 μM)”.
`CSC1OC(COCc2ccc(-c3ccccc3)cc2)C(O)C(OCc2ccc3ccccc3c2)C1NC(=O)CCN` (stereo not drawn) [compound 313]: the “A7: inhibition of radioligand binding, human μ-opioid (MOP)” value on Human μ-opioid (MOP) is listed as “− (“−” indicates less than 50% inhibition at 10 μM)”. Moreover, the “A2: inhibition of radioligand binding, human κ-opioid (KOP)” value at Human κ-Opioid (KOP) is reported as “− (“−” indicates less than 50% inhibition at 10 μM)”. Further, the “A6: inhibition of radioligand binding, human melanin-concentrating hormone (MCH1)” value in assay [1] is recorded as “− (“−” indicates less than 50% inhibition at 10 μM)”. Further, on Human Melanocortin (MC3), the “A3: inhibition of radioligand binding, human melanocortin (MC3)” value was “− (“−” indicates less than 50% inhibition at 10 μM)”. Besides, the “A8: inhibition of radioligand binding, human neurokinin (NK1)” value at Human neurokinin (NK1) is “+ (“+” indicates greater than 50% inhibition at 10 μM)”. For the same molecule, the “A4: inhibition of radioligand binding, human melanocortin (MC4)” value at Human Melanocortin (MC4) is given as “− (“−” indicates less than 50% inhibition at 10 μM)”. In addition, the “A5: inhibition of radioligand binding, human melanocortin (MC5)” value on Human melanocortin (MC5) is “+ (“+” indicates greater than 50% inhibition at 10 μM)”. For the same molecule, the “A10: inhibition of radioligand binding, human opioid (ORL1)” value on Human opioid (ORL1) is reported as “− (“−” indicates less than 50% inhibition at 10 μM)”. Further, the “A9: inhibition of radioligand binding, human neuropeptide Y (NPY-Y1)” value in assay [2] is recorded as “− (“−” indicates less than 50% inhibition at 10 μM)”. Further, at Mouse urotensin (mUR2), the “A11: inhibition of radioligand binding, mouse urotensin (mUR2)” value is “− (“−” indicates less than 50% inhibition at 10 μM)”. On Human δ-opioid (DOP), the “A1: inhibition of radioligand binding, human δ-opioid (DOP)” value was “− (“−” indicates less than 50% inhibition at 10 μM)”.
